Test results published in EP0598515A1, “Method for herbicidal activity-enhancing, activity-enhanced herbicidal composition and activity-enhancing composition” (ISHIHARA SANGYO KAISHA LTD., priority 1992, dated 1994).
Several values for one entry are separate records, joined by “and”; a condition that tells them apart may be missing. Equal entries are not always repeated. Where two headings read alike, the source gives them in different places.

Assays:
Assay type in all cases: in vivo
[1] = tested on: Crabgrass (Digitaria sanginalis L.); assay: Test Example 11: pot test, Example 8 suspension concentrate with kinds of EFAS; conditions: EFAS: No addition, 23 days after treatment, duplicate
Description: Crabgrass (Digitaria sanginalis L.) seeds were sown in 1/1,000,000-hectare pots filled with upland soil and arranged in a duplicate system. When the crabgrass plants grew to a 4-leaf stage, the oil-based suspension concentrate obtained in Example 8 was diluted with 200 liters/hectare of water containing a predetermined amount of an ethoxylated fatty amine type surfactant (EFAS) and was applied foliarly to the plants with a small spray gun.
Twenty three days after treatment, the growth inhibition of plants was evaluated with visual observation in the same manner as in Test Example 1 and are shown in Table 11.

[2] = tested on: corn plants; assay: Test Example 13: field plot test, injury on corn; conditions: Example 8 suspension concentrate, 4 days after treatment, 0 for no injury to 5 for severe injure
From the text: (§1) In field plots of 4 m² (1 m × 4 m) unit arranged in a duplicate system, seeds of corn, crabgrass (Digitaria sanguinalis L.) common lambsquarters (Chenopodium album L.), slender amaranth (Amaranthus viridis L.), velvetleaf (Abutilon theophrasti MEDIC.) and common cocklebur (Xanthium strumarium L.) were sown and grown. Also, green foxtail (Setaria viridis L.) and barnyardgrass (Echinochloa crus-galli L.) were allowed to grow spontaneously. When the plants grew to certain stages (corn: 4.2 to 6.0-leaf stage, crabgrass: 3.2 to 5.0-leaf stage, common lambsquarters: 3.0 to 6.0-leaf stage, slender amaranth: 2.0 to 5.0-leaf stage, velvetleaf: 1.5 to 4.0-leaf stage, common cocklebur: cotyledonal to 3.5-leaf stage, green foxtail: 3.0 to 5.0-leaf stage and barnyardgrass: 3.0 to 5.0-leaf stage), the oil-based suspension concentrate obtained in Example 8 was diluted with 200 liters/hectare of water containing a predetermined amount of Frigate and was applied foliarly to the plants with a small spray gun.
On the other hand, 4 days after treatment, corn plants were examined for condition of injury (degree of discoloration and yellowing) with visual observation and the results are also shown in Table 13 (0 for no injury to 5 for severe injure).

[3] = tested on: Common lambsquarters (Chenopodium album L.); assay: Test Example 13: field plot test, growth inhibition; conditions: 648 h, Example 8 suspension concentrate, 27 days after treatment, field plots, read-out: Growth Inhibition (%) CA; for inhibition at 30 g/ha: Compound A 30 g/ha; for inhibition at 40 g/ha: Compound A 40 g/ha
From the text: as §1
(§2) Twenty seven days after treatment, the growth inhibition of plants except for corn plants was evaluated with visual observation in the same manner as in Test Example 1 and are shown in Table 13.

[4] = tested on: Velvetleaf (Abutilon theophrasti MEDIC.); assay: as above; conditions: 648 h, Example 8 suspension concentrate, 27 days after treatment, field plots; for inhibition at 30 g/ha: Compound A 30 g/ha; for inhibition at 40 g/ha: Compound A 40 g/ha
From the text: as §1, §2

[5] = tested on: common cocklebur (Xanthium strumarium L.); assay: as above; conditions: Example 8 suspension concentrate, 27 days after treatment, field plots
From the text: as §1, §2

[6] = tested on: green foxtail (Setaria viridis L.); assay: as above; conditions: Example 8 suspension concentrate, 27 days after treatment, field plots; for inhibition at 40 g/ha: Compound A 40 g/ha
From the text: as §1, §2

[7] = tested on: barnyardgrass (Echinochloa crus-galli L.); assay: as above; conditions: Example 8 suspension concentrate, 27 days after treatment, field plots; for inhibition at 30 g/ha: Compound A 30 g/ha
From the text: as §1, §2

[8] = tested on: slender amaranth (Amaranthus viridis L.); assay: as above; conditions: 648 h, Example 8 suspension concentrate, 27 days after treatment, field plots, read-out: Growth Inhibition (%) AV; for inhibition at 30 g/ha: Compound A 30 g/ha; for inhibition at 40 g/ha: Compound A 40 g/ha
From the text: as §1, §2

[9] = tested on: Crabgrass (Digitaria sanguinalis L.); assay: as above; conditions: 648 h, Example 8 suspension concentrate, 27 days after treatment, field plots, read-out: Growth Inhibition (%) DS; for inhibition at 30 g/ha: Compound A 30 g/ha; for inhibition at 40 g/ha: Compound A 40 g/ha
From the text: as §1, §2

[10] = tested on: total evaluation; assay: Test Example 13: field plot test, total evaluation of growth inhibition; conditions: Example 8 suspension concentrate, 27 days after treatment, field plots; for inhibition at 40 g/ha: Compound A 40 g/ha
From the text: as §1, §2

[11] = Frigate 0.1 % by volume, Compound A 30 g/ha
[12] = Frigate 0.2 % by volume, Compound A 20 g/ha
[13] = Frigate 0.2 % by volume, Compound A 40 g/ha
[14] = Frigate: No addition, Compound A 30 g/ha
[15] = Frigate: No addition, Compound A 40 g/ha
[16] = Frigate: No addition, Compound A 50 g/ha

COc1cc(OC)nc(NC(=O)NS(=O)(=O)c2ncccc2C(=O)N(C)C)n1 [Compound A, N-[(4,6-dimethoxypyrimidin-2-yl)aminocarbonyl]-3-dimethylaminocarbonyl-2-pyridinesulfonamide]
inhibition at 10 g/ha ([1]; Digitaria, 552 h, Compound A 10 g/ha, read-out: Growth Inhibition (%) of Crabgrass): 70% | inhibition at 20 g/ha ([1]; Digitaria, 552 h, Compound A 20 g/ha, read-out: Growth Inhibition (%) of Crabgrass): 98% | inhibition at 40 g/ha ([1]; Digitaria, 552 h, Compound A 40 g/ha, read-out: Growth Inhibition (%) of Crabgrass): 98% | Growth Inhibition (%) of Crabgrass ([1]; Compound A 10 g/ha): 55% | Growth Inhibition (%) of Crabgrass ([1]; Compound A 20 g/ha): 90% | Injury on Corn [2, 11]: 1.0 | Injury on Corn ([2]; Frigate 0.1 % by volume, Compound A 40 g/ha): 1.0 | Injury on Corn [2, 12]: 1.0 | Injury on Corn ([2]; Frigate 0.2 % by volume, Compound A 30 g/ha): 1.0 and 1.5 | Injury on Corn [2, 13]: 1.5 and 2.0 | Injury on Corn [2, 14]: 1.0 | Injury on Corn [2, 15]: 1.0 and 1.5 | Injury on Corn [2, 16]: 1.0 | inhibition at 30 g/ha ([3]; Frigate 0.1 % by volume): 80% | inhibition at 40 g/ha ([3]; Frigate 0.1 % by volume): 90% | inhibition at 30 g/ha ([3]; Frigate 0.2 % by volume): 85% | inhibition at 40 g/ha ([3]; Frigate 0.2 % by volume): 90% | inhibition at 30 g/ha ([3]; Frigate: No addition): 45% | inhibition at 40 g/ha ([3]; Frigate: No addition): 65% | inhibition at 50 g/ha [3, 16]: 65% | inhibition at 30 g/ha ([4]; Frigate 0.1 % by volume): 70% | inhibition at 40 g/ha ([4]; Frigate 0.1 % by volume): 70% | inhibition at 20 g/ha [4, 12]: 55% | inhibition at 30 g/ha ([4]; Frigate 0.2 % by volume): 70% | inhibition at 40 g/ha ([4]; Frigate 0.2 % by volume): 75% | inhibition at 30 g/ha ([4]; Frigate: No addition): 30% | inhibition at 40 g/ha ([4]; Frigate: No addition): 55% | inhibition at 50 g/ha [4, 16]: 70% | Growth Inhibition (%) XS [5, 13]: 65% | Growth Inhibition (%) XS [5, 14]: 25% and 50% | inhibition at 30 g/ha ([5]; Xanthium strumarium, 648 h, Frigate 0.1 % by volume, Compound A 30 g/ha, read-out: Growth Inhibition (%) XS): 80% | inhibition at 40 g/ha ([5]; Xanthium strumarium, 648 h, Frigate 0.1 % by volume, Compound A 40 g/ha, read-out: Growth Inhibition (%) XS): 80% | inhibition at 20 g/ha ([5]; Xanthium strumarium, 648 h, Frigate 0.2 % by volume, Compound A 20 g/ha, read-out: Growth Inhibition (%) XS): 80% | inhibition at 30 g/ha ([5]; Xanthium strumarium, 648 h, Frigate 0.2 % by volume, Compound A 30 g/ha, read-out: Growth Inhibition (%) XS): 85% | inhibition at 40 g/ha ([5]; Xanthium strumarium, 648 h, Frigate: No addition, Compound A 40 g/ha, read-out: Growth Inhibition (%) XS): 75% | inhibition at 50 g/ha ([5]; Xanthium strumarium, 648 h, Frigate: No addition, Compound A 50 g/ha, read-out: Growth Inhibition (%) XS): 70% | Growth Inhibition (%) SV [6, 11]: 40% | inhibition at 40 g/ha ([6]; Setaria viridis, 648 h, Frigate 0.1 % by volume, read-out: Growth Inhibition (%) SV): 70% | inhibition at 20 g/ha ([6]; Setaria viridis, 648 h, Frigate 0.2 % by volume, Compound A 20 g/ha, read-out: Growth Inhibition (%) SV): 60% | inhibition at 30 g/ha ([6]; Setaria viridis, 648 h, Frigate 0.2 % by volume, Compound A 30 g/ha, read-out: Growth Inhibition (%) SV): 65% | inhibition at 40 g/ha ([6]; Setaria viridis, 648 h, Frigate 0.2 % by volume, read-out: Growth Inhibition (%) SV): 75% | inhibition at 30 g/ha ([6]; Setaria viridis, 648 h, Frigate: No addition, Compound A 30 g/ha, read-out: Growth Inhibition (%) SV): 65% | inhibition at 40 g/ha ([6]; Setaria viridis, 648 h, Frigate: No addition, read-out: Growth Inhibition (%) SV): 70% | inhibition at 50 g/ha ([6]; Setaria viridis, 648 h, Frigate: No addition, Compound A 50 g/ha, read-out: Growth Inhibition (%) SV): 80% | inhibition at 40 g/ha ([7]; Echinochloa crus-galli, 648 h, Frigate 0.1 % by volume, Compound A 40 g/ha, read-out: Growth Inhibition (%) EC): 100% | inhibition at 20 g/ha ([7]; Echinochloa crus-galli, 648 h, Frigate 0.2 % by volume, Compound A 20 g/ha, read-out: Growth Inhibition (%) EC): 100% | inhibition at 30 g/ha ([7]; Echinochloa crus-galli, 648 h, Frigate 0.2 % by volume, read-out: Growth Inhibition (%) EC): 100% | inhibition at 40 g/ha ([7]; Echinochloa crus-galli, 648 h, Frigate 0.2 % by volume, Compound A 40 g/ha, read-out: Growth Inhibition (%) EC): 100% | inhibition at 30 g/ha ([7]; Echinochloa crus-galli, 648 h, Frigate: No addition, read-out: Growth Inhibition (%) EC): 65% | inhibition at 40 g/ha ([7]; Echinochloa crus-galli, 648 h, Frigate: No addition, Compound A 40 g/ha, read-out: Growth Inhibition (%) EC): 75% | Growth Inhibition (%) EC [7, 15]: 60% | inhibition at 30 g/ha ([8]; Frigate 0.1 % by volume): 95% | inhibition at 40 g/ha ([8]; Frigate 0.1 % by volume): 90% | inhibition at 20 g/ha [8, 12]: 85% | inhibition at 30 g/ha ([8]; Frigate 0.2 % by volume): 90% | inhibition at 40 g/ha ([8]; Frigate 0.2 % by volume): 95% | inhibition at 30 g/ha ([8]; Frigate: No addition): 90% | inhibition at 40 g/ha ([8]; Frigate: No addition): 95% | inhibition at 50 g/ha [8, 16]: 95% | inhibition at 30 g/ha ([9]; Frigate 0.1 % by volume): 85% | inhibition at 40 g/ha ([9]; Frigate 0.1 % by volume): 95% | inhibition at 20 g/ha [9, 12]: 85% | inhibition at 30 g/ha ([9]; Frigate 0.2 % by volume): 85% | inhibition at 40 g/ha ([9]; Frigate 0.2 % by volume): 90% | inhibition at 30 g/ha ([9]; Frigate: No addition): 75% | inhibition at 40 g/ha ([9]; Frigate: No addition): 80% | inhibition at 50 g/ha [9, 16]: 85% | inhibition at 30 g/ha ([10]; 648 h, Frigate 0.1 % by volume, Compound A 30 g/ha, read-out: Growth Inhibition (%) TE): 75% | inhibition at 40 g/ha ([10]; 648 h, Frigate 0.1 % by volume, read-out: Growth Inhibition (%) TE): 90% | inhibition at 20 g/ha ([10]; 648 h, Frigate 0.2 % by volume, Compound A 20 g/ha, read-out: Growth Inhibition (%) TE): 65% | inhibition at 30 g/ha ([10]; 648 h, Frigate 0.2 % by volume, Compound A 30 g/ha, read-out: Growth Inhibition (%) TE): 80% | inhibition at 40 g/ha ([10]; 648 h, Frigate 0.2 % by volume, read-out: Growth Inhibition (%) TE): 85% | inhibition at 30 g/ha ([10]; 648 h, Frigate: No addition, Compound A 30 g/ha, read-out: Growth Inhibition (%) TE): 50% | inhibition at 40 g/ha ([10]; 648 h, Frigate: No addition, read-out: Growth Inhibition (%) TE): 70% | inhibition at 50 g/ha ([10]; 648 h, Frigate: No addition, Compound A 50 g/ha, read-out: Growth Inhibition (%) TE): 75% | Growth Inhibition (%) TE [10, 14]: 60%
